Data taken from patent US9481709B2, “Boropeptide inhibitors of enteropeptidase and their uses in treatment of obesity, overweight and/or diseases associated with an abnormal fat metabolism” (OBE THERAPY BIOTECHNOLOGY, priority 2007, dated 2016).

Columns and labels:
[1] = biological target: T1, Kallikrein from human plasma (Homo sapiens, UniProt P03952); assay: Kallikrein assay; type: biochemical; conditions: in vitro
T1 construct: Kallikrein from human plasma; purchased SIGMA K2638; host or cells: human plasma
Method: (§1) 2.2. Thrombin, Trypsin, Kallikrein, Plasmin, Chymotrypsin and Elastase Assay
(§2) Table IV below lists the final concentrations of the tested enzymes and the corresponding substrates, in the determination of the IC50 without inhibitor (positive control) and in inhibition protocols:
(§3) Measurement without Inhibitor (Positive Control)
(§4) In 17 μl of TN, 1 μl of enzyme and 2 μl of substrate was mixed, just before reading; The Absorbance was measured at 405 nm on EnVision (Perkin Elmer).
(§5) Inhibition in 384 Well Plate Small Volume ([…])
(§6) In 15 μl of TN, 1 μl of enzyme and 2 μl of Inhibitor (compound of the invention) at different concentrations were mixed and incubated at RT for 30 minutes; 2 μl of substrate was added, just before reading; The Absorbance was measured at 405 nm on EnVision (Perkin Elmer).

[2] = biological target: T2, Plasmin from human plasma (Homo sapiens, UniProt P00747); assay: Plasmin assay; type: biochemical; conditions: in vitro
T2 construct: Plasmin from human plasma; purchased SIGMA P1867; host or cells: human plasma
Method: as §1, §2, §3, §4, §5, §6

Enteropeptidase [3] = biological target: T3, Enteropeptidase (Homo sapiens, UniProt P98073); assay: Enteropeptidase
From the text: (§7) Table printed on a drawing sheet, Fig. 5
Head of the field: Enteropeptidase
(§8) The patent's description of the figure: FIG. 5 is a Table showing the IC 50 (in nM) of enteropeptidase, various serine proteases and other enzyme families, in the presence of compounds OBE 1999, OBE 2000, OBE 2001 or OBE 2002.
(§9) First copying reader's note: Each column is one compound; each row gives its IC50 against the named enzyme.
Where the first naming reader finds the target: head: Enteropeptidase
Target sequence in this assay (P98073 2-1019): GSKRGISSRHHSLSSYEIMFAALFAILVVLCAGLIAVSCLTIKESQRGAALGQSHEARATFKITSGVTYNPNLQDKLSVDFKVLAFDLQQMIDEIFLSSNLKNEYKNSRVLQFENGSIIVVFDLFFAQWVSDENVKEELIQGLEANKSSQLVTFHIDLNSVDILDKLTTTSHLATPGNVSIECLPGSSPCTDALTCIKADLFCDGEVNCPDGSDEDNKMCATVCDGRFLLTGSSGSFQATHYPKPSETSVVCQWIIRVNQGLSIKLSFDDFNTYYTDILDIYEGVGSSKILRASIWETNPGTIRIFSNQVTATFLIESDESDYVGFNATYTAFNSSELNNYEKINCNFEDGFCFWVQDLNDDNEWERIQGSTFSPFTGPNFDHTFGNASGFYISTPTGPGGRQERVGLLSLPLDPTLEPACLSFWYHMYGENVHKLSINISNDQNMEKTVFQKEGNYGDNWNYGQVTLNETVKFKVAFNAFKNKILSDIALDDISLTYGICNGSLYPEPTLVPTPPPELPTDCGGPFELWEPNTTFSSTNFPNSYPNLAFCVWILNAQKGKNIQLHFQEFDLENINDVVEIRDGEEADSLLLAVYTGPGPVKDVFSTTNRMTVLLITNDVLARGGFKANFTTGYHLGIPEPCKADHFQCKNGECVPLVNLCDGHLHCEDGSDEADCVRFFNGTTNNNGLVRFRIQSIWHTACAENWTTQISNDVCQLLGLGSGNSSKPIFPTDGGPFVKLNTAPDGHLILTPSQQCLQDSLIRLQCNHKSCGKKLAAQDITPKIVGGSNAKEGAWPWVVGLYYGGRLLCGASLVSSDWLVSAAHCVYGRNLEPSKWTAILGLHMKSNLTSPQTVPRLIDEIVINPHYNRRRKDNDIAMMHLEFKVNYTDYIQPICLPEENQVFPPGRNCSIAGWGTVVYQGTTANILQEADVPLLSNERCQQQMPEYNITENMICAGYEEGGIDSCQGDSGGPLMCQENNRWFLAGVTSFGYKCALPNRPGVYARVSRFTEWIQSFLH

Trypsin = Trypsin (Homo sapiens, UniProt P07477); assay: Trypsin
From the text: as §7
Head of the field: Trypsin
as §8, §9
Where the first naming reader finds the target: head: Trypsin

Plasmin = Plasmin (Homo sapiens, UniProt P00747); assay: Plasmin
From the text: as §7
Head of the field: Plasmin
as §8, §9
Where the first naming reader finds the target: head: Plasmin

Kallikrein = Kallikrein (Homo sapiens, UniProt P03952); assay: Kallikrein
From the text: as §7
Head of the field: Kallikrein
as §8, §9
Where the first naming reader finds the target: head: Kallikrein

[4] = biological target: T4, Thrombin from human plasma (Homo sapiens, UniProt P00734); assay: Thrombin assay; type: biochemical; conditions: in vitro
T4 construct: Thrombin from human plasma; purchased SIGMA T1063; host or cells: human plasma
Method: as §1, §2, §3, §4, §5, §6

Thrombin = Thrombin (Homo sapiens, UniProt P00734); assay: Thrombin
From the text: as §7
Head of the field: Thrombin
as §8, §9
Where the first naming reader finds the target: head: Thrombin

Enteropeptidase [5] = biological target: T3, Enteropeptidase; assay: Enteropeptidase assay (Np Tosyl Gly Pro Arg pNa substrate, absorbance 405 nm); type: biochemical; parameters: purchased RD system 1585SE; conditions: in vitro, 30 min preincubation at RT
Method: 2.1. Enteropeptidase Assay
Activation of the Enteropeptidase
A mix of enteropeptidase at 58.8 nM (final) and thermolysine at 1.58 ng/I (final) in TCN buffer was prepared; the mix was incubated at 37° C. during 30 minutes for activation. Phosphoramidon (10 μM final) was added to stop the activation by thermolysine.
Measurement of Enteropeptidase Activity without Inhibitor (Positive Control)
In 17 μl of TCN, 1 μl of active enzyme (2.9 nm final) and 2 μl Np Tosyl Gly Pro Arg pNa (1 mM final) were mixed, just before reading. The Absorbance was measured at 405 nm on EnVision (Perkin Elmer).
as §5
Target sequence in this assay (P98073 785-1019 limits assumed): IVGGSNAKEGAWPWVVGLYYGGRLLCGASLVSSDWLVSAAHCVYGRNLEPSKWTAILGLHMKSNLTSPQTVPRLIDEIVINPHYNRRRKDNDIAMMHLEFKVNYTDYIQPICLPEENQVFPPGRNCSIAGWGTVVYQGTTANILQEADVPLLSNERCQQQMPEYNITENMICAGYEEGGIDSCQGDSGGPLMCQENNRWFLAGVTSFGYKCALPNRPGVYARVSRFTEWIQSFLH
Target sequence in this assay (P98073 2-784 partner limits assumed): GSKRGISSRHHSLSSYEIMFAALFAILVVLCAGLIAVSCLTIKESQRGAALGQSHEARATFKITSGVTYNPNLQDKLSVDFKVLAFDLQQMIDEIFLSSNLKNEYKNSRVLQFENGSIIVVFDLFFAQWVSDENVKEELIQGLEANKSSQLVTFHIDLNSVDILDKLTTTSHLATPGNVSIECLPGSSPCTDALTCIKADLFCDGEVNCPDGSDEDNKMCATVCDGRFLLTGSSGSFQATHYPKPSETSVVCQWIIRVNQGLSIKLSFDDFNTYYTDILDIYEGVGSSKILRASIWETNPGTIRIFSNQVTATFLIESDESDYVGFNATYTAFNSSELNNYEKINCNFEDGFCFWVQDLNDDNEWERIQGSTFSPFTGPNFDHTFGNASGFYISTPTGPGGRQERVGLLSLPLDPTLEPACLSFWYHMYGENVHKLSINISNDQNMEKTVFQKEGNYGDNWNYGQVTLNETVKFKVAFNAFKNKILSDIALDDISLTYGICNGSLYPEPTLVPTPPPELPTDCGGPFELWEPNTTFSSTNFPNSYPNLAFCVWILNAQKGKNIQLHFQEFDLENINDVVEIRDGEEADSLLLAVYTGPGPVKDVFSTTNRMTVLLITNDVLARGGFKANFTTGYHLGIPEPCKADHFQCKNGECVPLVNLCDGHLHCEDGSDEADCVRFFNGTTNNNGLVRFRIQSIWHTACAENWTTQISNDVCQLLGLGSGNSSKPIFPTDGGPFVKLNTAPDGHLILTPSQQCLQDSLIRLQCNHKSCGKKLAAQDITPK
In 15 μl of TCN, 1 μl of active enzyme and 2 μl of Inhibitor (compound of the invention) at different concentrations were mixed, and incubated at RT (room temperature) for 30 minutes; 2 μl Np Tosyl Gly Pro Arg pNa (1 mM final) was added just before reading. The Absorbance was measured at 405 nm on EnVision (Perkin Elmer).

[6] = biological target: T5, Trypsin from human pancreas (Homo sapiens, UniProt P07477); assay: Trypsin assay; type: biochemical; conditions: in vitro; range printed jointly for trypsin, kallikrein and plasmin
T5 construct: Trypsin from human pancreas; purchased SIGMA T6424; host or cells: human pancreas
Method: as §1, §2, §3, §4, §5, §6

T2 sequence (P00747 581-810 limits assumed): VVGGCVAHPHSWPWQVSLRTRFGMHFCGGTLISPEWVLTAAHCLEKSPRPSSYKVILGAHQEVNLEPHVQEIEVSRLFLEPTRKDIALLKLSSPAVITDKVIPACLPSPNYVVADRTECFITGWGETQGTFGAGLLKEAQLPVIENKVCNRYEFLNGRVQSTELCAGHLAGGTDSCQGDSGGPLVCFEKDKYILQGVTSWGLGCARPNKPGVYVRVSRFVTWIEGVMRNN
T2 sequence (P00747 98-580 partner limits assumed): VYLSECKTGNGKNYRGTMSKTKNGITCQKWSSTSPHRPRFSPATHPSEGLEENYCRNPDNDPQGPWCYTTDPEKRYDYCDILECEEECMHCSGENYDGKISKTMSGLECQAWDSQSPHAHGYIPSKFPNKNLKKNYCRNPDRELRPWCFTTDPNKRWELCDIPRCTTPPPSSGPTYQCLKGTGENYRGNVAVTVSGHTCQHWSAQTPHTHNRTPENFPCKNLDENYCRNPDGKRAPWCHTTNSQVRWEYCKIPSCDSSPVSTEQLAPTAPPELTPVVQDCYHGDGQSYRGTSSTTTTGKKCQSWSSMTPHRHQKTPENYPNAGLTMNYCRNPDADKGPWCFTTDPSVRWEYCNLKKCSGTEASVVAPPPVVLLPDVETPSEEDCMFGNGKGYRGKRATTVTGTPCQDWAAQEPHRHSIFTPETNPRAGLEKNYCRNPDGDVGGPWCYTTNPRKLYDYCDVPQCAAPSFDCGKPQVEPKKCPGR
T1 sequence (P03952 391-638 limits assumed): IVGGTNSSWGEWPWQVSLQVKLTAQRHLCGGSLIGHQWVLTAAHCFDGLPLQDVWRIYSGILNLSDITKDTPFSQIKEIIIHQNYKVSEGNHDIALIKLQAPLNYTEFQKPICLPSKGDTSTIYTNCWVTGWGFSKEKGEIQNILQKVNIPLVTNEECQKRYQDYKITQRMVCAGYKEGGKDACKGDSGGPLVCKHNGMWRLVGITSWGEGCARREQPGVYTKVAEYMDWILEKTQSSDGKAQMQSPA
T1 sequence (P03952 20-390 partner limits assumed): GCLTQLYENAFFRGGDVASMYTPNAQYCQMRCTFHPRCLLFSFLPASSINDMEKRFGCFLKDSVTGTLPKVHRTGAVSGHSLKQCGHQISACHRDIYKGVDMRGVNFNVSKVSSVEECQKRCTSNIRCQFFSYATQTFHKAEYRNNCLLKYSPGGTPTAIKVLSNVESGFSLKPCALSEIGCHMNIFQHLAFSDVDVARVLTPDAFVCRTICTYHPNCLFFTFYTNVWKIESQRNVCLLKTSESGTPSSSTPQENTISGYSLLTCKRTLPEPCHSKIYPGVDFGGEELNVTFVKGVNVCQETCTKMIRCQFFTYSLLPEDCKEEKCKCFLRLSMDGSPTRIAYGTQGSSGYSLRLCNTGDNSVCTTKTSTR
Sequence of Plasmin (P00747 97-810): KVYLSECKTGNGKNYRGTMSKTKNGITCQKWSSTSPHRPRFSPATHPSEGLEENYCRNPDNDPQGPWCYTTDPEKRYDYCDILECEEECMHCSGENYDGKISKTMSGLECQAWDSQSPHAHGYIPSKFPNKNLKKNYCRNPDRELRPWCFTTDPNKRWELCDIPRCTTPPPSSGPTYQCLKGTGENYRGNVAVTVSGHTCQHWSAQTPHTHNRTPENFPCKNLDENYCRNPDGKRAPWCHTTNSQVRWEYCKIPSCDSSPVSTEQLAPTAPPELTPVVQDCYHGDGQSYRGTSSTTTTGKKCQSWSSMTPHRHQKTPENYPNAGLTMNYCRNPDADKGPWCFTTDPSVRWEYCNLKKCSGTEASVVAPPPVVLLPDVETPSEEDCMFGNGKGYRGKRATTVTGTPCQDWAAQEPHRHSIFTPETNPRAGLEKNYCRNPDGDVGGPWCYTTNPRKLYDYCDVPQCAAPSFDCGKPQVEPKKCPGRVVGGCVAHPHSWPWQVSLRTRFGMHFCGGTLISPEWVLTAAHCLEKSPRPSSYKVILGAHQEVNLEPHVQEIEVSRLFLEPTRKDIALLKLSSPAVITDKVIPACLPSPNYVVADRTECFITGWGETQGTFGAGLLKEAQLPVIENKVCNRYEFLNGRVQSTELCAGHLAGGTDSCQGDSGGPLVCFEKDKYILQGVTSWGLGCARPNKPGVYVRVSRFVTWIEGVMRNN
Sequence of Kallikrein (P03952 20-638): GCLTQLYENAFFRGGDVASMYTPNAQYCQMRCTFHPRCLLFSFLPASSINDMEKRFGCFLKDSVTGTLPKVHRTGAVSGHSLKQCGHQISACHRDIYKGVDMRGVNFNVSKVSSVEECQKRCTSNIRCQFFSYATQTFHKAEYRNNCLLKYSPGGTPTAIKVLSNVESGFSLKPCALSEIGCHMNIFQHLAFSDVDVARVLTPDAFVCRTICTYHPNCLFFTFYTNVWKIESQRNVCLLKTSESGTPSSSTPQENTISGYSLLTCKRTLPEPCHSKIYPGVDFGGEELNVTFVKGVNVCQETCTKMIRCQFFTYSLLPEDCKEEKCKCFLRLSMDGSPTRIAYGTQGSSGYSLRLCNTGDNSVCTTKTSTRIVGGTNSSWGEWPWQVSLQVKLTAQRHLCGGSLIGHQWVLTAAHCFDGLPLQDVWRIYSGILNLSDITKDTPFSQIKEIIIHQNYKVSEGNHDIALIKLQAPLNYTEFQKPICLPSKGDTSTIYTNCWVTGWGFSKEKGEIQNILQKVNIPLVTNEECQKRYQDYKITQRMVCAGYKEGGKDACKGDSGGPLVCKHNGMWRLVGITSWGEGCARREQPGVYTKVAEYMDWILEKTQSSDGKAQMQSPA

IC50 [1] [nM] | IC50 [2] [nM] | IC50 thrombin [4] | IC50 (Thrombin) [nM] | IC50 enteropeptidase (Enteropeptidase [5]) | IC50 [6] [nM] | IC50 (Enteropeptidase [5]) [nM] | SMILES | IC50 kallikrein [1] | IC50 plasmin [2] | IC50 (Enteropeptidase [3]) [nM] | IC50 (Trypsin) [nM] | IC50 (Plasmin) [nM] | IC50 (Kallikrein) [nM]
 |  |  |  |  |  |  | CC(=O)N[C@@H](CCC(=O)O)C(=O)NCC(=O)N[C@@H](CCCN=C(N)N)B(O)O [OBE2002, Acetyl-Glu-Gly-BoroArg] | low IC50 value | low IC50 value | 33.6 | 10.5 | 3800 | 81.4
260 | 7100 | high value of IC50 | 3220 | low value of IC50 |  |  | CC1(C)[C@@H]2CC3OB([C@H](CCCNC(=N)N)NC(=O)CNC(=O)[C@@H](N)CCC(=O)O)O[C@@]3(C)[C@H]1C2 (stereo partly shown) [OBE2000] |  |  | 68 |  |  | 
7.5 to 29.8 | 7.5 to 29.8 |  | 6400 |  | 7.5 to 29.8 | 33 | C[C@H](N)C(=O)N[C@@H](Cc1ccccc1)C(=O)N[C@@H](CCCNC(=N)N)B1OC2C[C@@H]3C[C@@H](C3(C)C)[C@]2(C)O1 (stereo partly shown) [OBE1999] |  |  |  |  | 29.8 | 7.5
